From patent US20260137819A1 (Radionetics Oncology, Inc., priority 2022, published 2026)

Molecular target: T1, human follicle-stimulating hormone receptor (FSHR) (Homo sapiens, UniProt P23945)
T1 construct: host or cells: CHO-K1
T1 sequence (P23945 18-695): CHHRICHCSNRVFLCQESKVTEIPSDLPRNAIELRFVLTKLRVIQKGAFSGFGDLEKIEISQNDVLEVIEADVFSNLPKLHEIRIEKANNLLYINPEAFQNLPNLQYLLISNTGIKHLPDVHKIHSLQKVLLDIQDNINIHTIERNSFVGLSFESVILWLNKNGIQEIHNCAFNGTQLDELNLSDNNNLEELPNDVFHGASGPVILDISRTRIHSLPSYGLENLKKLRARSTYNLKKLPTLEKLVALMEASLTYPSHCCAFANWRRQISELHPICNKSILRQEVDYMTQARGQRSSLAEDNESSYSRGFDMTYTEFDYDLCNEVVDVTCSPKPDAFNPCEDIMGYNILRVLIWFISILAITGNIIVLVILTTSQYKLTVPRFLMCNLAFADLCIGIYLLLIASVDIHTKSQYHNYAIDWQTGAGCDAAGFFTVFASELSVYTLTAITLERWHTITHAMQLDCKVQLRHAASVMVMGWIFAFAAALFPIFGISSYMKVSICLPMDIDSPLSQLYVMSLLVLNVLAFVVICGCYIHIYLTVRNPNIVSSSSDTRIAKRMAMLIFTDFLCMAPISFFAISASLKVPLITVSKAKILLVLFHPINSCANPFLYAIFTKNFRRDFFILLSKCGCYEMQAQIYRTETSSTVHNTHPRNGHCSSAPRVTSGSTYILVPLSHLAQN
Test: Measurement of agonist cAMP production by activation of human FSHR
Type: cell-based
Details: CHO-K1 human FSHR cells, 30 minutes at 37° C., HTRF cAMP kit; read-out: hFSHR Agonist cAMP EC50
In short: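 cAMP output was measured by HTRF after 30 min at 37 °C agonist exposure (0–10,000 nM final) in stably FSHR-transfected CHO-K1 cells. Lysate cAMP was read off a standard curve and fitted to obtain half-maximal EC50.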

EC50	SMILES
10 to 100 nM	COc1cc2c(cc1-c1cccc(NC(=O)C3OC(CNC(=O)CN4CCN(CC(=O)O)CCN(CC(=O)O)CCN(CC(=O)O)CC4)C(O)C(O)C3O)c1)-c1c(c(C(=O)N3CCOCC3(C)C)nn1-c1cc(Cl)cc(Cl)c1)CO2 [Compound 34, 2,2′,2″-(10-(2-((((2S,3R,4R,5R,6S)-6-((3-(1-(3,5-dichlorophenyl)-3-(3,3dimethylmorpholine-4-carbonyl)-7-methoxy-1,4-dihydrochromeno|4,3-c]pyrazol-8-yl)phenyl)carbamoyl)-3,4,5-trihydroxytetrahydro-2H-pyran-2-yl)methyl)amino)-2-oxoethyl)-1,4,7,10-tetraazacyclododecane-1,4,7-triyl)triacetic acid]
> 100 nM	COc1cc2c(cc1-c1cccc(NC(=O)C(CNC(=O)CCNC(=O)CN3CCN(CC(=O)O)CCN(CC(=O)O)CCN(CC(=O)O)CC3)CNC(=O)CCNC(=O)CN3CCN(CC(=O)O)CCN(CC(=O)O)CCN(CC(=O)O)CC3)c1)-c1c(c(C(=O)N3CCOCC3(C)C)nn1-c1cc(Cl)cc(Cl)c1)CO2 [Compound 35]
< 10 nM	COc1cc2c(cc1-c1cccc(NC(=O)CCNC(=O)CN3CCC(NC(=O)CN4CCN(CC(=O)O)CCN(CC(=O)O)CCN(CC(=O)O)CC4)CC3)c1)-c1c(c(C(=O)N3CCOCC3(C)C)nn1-c1cc(Cl)cc(Cl)c1)CO2 [Compound 36, 2,2′,2″-(10-(2-((1-(2-((3-((3-(1-(3,5-dichlorophenyl)-3-(3,3dimethylmorpholine-4-carbonyl)-7-methoxy-1,4-dihydrochromeno|4,3-clpyrazol-8-yl)phenyl)amino)-3-oxopropyl)amino)-2-oxoethyl)piperidin-4-yl)amino)-2-oxoethyl)-1,4,7,10-tetraazacyclododecane-1,4,7-triyl)triacetic acid]
10 to 100 nM	COc1cc2c(cc1-c1cccc(NC(=O)CCNC(=O)[C@H](CS(=O)(=O)O)NC(=O)CN3CCN(CC(=O)O)CCN(CC(=O)O)CCN(CC(=O)O)CC3)c1)-c1c(c(C(=O)N3CCOCC3(C)C)nn1-c1cc(Cl)cc(Cl)c1)CO2 [Compound 37, (R)-2,2′,2″-(10-(2-((1-((3-((3-(1-(3,5-dichlorophenyl)-3-(3,3dimethylmorpholine-4-carbonyl)-7-methoxy-1,4-dihydrochromeno|4,3-clpyrazol-8-yl)phenyl)amino)-3-oxopropyl)amino)-1-oxo-3-sulfopropan-2-yl)amino)-2-oxoethyl)-1,4,7,10-tetraazacyclododecane-1,4,7-triyl)triacetic acid]
10 to 100 nM	COc1cc2c(cc1-c1cccc(NC(=O)C[C@H](O)C[C@H](O)CCNC(=O)CN3CCN(CC(=O)O)CCN(CC(=O)O)CCN(CC(=O)O)CC3)c1)-c1c(c(C(=O)N3CCOCC3(C)C)nn1-c1cc(Cl)cc(Cl)c1)CO2 [Compound 38]
10 to 100 nM	COc1cc2c(cc1-c1cccc(/C(C)=N/OCCNC(=O)CN3CCN(CC(=O)O)CCN(CC(=O)O)CCN(CC(=O)O)CC3)c1)-c1c(c(C(=O)N3CCOCC3(C)C)nn1-c1cc(Cl)cc(Cl)c1)CO2 [Compound 39]
10 to 100 nM	COc1cc2c(cc1-c1cccc(/C(C)=N/OCCNC(=O)CN3CCN(C(=O)CN4CCN(CC(=O)O)CCN(CC(=O)O)CCN(CC(=O)O)CC4)CC3)c1)-c1c(c(C(=O)N3CCOCC3(C)C)nn1-c1cc(Cl)cc(Cl)c1)CO2 [Compound 40]
10 to 100 nM	COc1cc2c(cc1-c1cccc(/C(C)=N/OCCNC(=O)COCCOCCNC(=O)CN3CCN(CC(=O)O)CCN(CC(=O)O)CCN(CC(=O)O)CC3)c1)-c1c(c(C(=O)N3CCOCC3(C)C)nn1-c1cc(Cl)cc(Cl)c1)CO2 [Compound 41, (E)-2,2′,2″-(10-(1-(3-(1-(3,5-dichlorophenyl)-3-(3,3-dimethylmorpholine-4carbonyl)-7-methoxy-1,4-dihydrochromeno|4,3-c|pyrazol-8-yl)phenyl)-7,16-dioxo-3,9,12-trioxa-2,6,15-triazaheptadec-1-en-17-yl)-1,4,7,10-tetraazacyclododecane-1,4,7-triyl)triacetic acid]
10 to 100 nM	COc1cc2c(cc1-c1cccc(/C(C)=N/OCCNC(=O)CN(C)C(=O)CN(C)C(=O)CN3CCN(CC(=O)O)CCN(CC(=O)O)CCN(CC(=O)O)CC3)c1)-c1c(c(C(=O)N3CCOCC3(C)C)nn1-c1cc(Cl)cc(Cl)c1)CO2 [Compound 42, (E)-2,2′,2″-(10-(1-(3-(1-(3,5-dichlorophenyl)-3-(3,3-dimethylmorpholine-4carbonyl)-7-methoxy-1,4-dihydrochromeno|4,3-c|pyrazol-8-yl)phenyl)-9,12-dimethyl-7,10,13-trioxo-3-oxa-2,6,9,12-tetraazatetradec-1-en-14-yl)-1,4,7,10-tetraazacyclododecane-1,4,7-triyl)triacetic acid]
10 to 100 nM	COc1cc2c(cc1-c1cccc(NC(=O)CONC(=O)CN3CCN(CC(=O)O)CCN(CC(=O)O)CCN(CC(=O)O)CC3)c1)-c1c(c(C(=O)N3CCOCC3(C)C)nn1-c1cc(Cl)cc(Cl)c1)CO2 [Compound 43]
< 10 nM	COc1cc2c(cc1-c1cccc(NC(=O)CON=C3CN(C(=O)CN4CCN(CC(=O)O)CCN(CC(=O)O)CCN(CC(=O)O)CC4)C3)c1)-c1c(c(C(=O)N3CCOCC3(C)C)nn1-c1cc(Cl)cc(Cl)c1)CO2 [Compound 44, 2,2′,2″-(10-(2-(3-((2-((3-(1-(3,5-dichlorophenyl)-3-(3,3-dimethylmorpholine-4carbonyl)-7-methoxy-1,4-dihydrochromeno|4,3-c|pyrazol-8-yl)phenyl)amino)-2-oxoethoxy)imino)azetidin-1-yl)-2-oxoethyl)-1,4,7,10-tetraazacyclododecane-1,4,7-triyl)triacetic acid]
< 10 nM	COc1cc2c(cc1-c1cccc(NC(=O)CCC(=O)N(CCOCCOCCOCCOCCOCCC(=O)O)C3CCN(C(=O)CN4CCN(CC(=O)O)CCN(CC(=O)O)CCN(CC(=O)O)CC4)CC3)c1)-c1c(c(C(=O)N3CCOCC3(C)C)nn1-c1cc(Cl)cc(Cl)c1)CO2 [Compound 45, 2,2′,2″-(10-(2-(4-(N-(17-carboxy-3,6,9,12,15-pentaoxaheptadecyl)-4-((3-(1-(3,5dichlorophenyl)-3-(3,3-dimethylmorpholine-4-carbonyl)-7-methoxy-1,4-dihydrochromeno|4,3-clpyrazol-8-yl)phenyl)amino)-4-oxobutanamido)piperidin-1-yl)-2-oxoethyl)-1,4,7,10-tetraazacyclododecane-1,4,7-triyl)triacetic acid]
10 to 100 nM	COc1cc2c(cc1-c1cccc(NC(=O)CCC(=O)N(CC(=O)O)C3CCN(C(=O)CN4CCN(CC(=O)O)CCN(CC(=O)O)CCN(CC(=O)O)CC4)CC3)c1)-c1c(c(C(=O)N3CCOCC3(C)C)nn1-c1cc(Cl)cc(Cl)c1)CO2 [Compound 46, 2,2′,2″-(10-(2-(4-(N-(carboxymethyl)-4-((3-(1-(3,5-dichlorophenyl)-3-(3,3dimethylmorpholine-4-carbonyl)-7-methoxy-1,4-dihydrochromeno|4,3-clpyrazol-8-yl)phenyl)amino)-4-oxobutanamido)piperidin-1-yl)-2-oxoethyl)-1,4,7,10-tetraazacyclododecane-1,4,7-trivl)triacetic acid]
10 to 100 nM	COc1cc2c(cc1-c1cccc(NC(=O)CCOCC(COCCC(=O)O)(COCCC(=O)O)NC(=O)CN3CCN(CC(=O)O)CCN(CC(=O)O)CCN(CC(=O)O)CC3)c1)-c1c(c(C(=O)N3CCOCC3(C)C)nn1-c1cc(Cl)cc(Cl)c1)CO2 [Compound 47, 2,2′,2″-(10-(2-((1,3-bis(2-carboxyethoxy)-2-((3-((3-(1-(3,5-dichlorophenyl)-3(3,3-dimethylmorpholine-4-carbonyl)-7-methoxy-1,4-dihydrochromeno|4,3-clpyrazol-8-yl)phenyl)amino)-3-oxopropoxy)methyl)propan-2-yl)amino)-2-oxoethyl)-1,4,7,10-tetraazacyclododecane-1,4,7-triyl)triacetic acid]
> 100 nM	COc1cc2c(cc1-c1cncc(NC(=O)CCC(=O)NC[C@H](NC(=O)CN3CCN(CC(=O)O)CCN(CC(=O)O)CCN(CC(=O)O)CC3)C(=O)N3CCN(CCS(=O)(=O)O)CC3)c1)-c1c(c(C(=O)N3CCOCC3(C)C)nn1-c1cc(F)cc(F)c1)CO2 [Compound 49, (S)-2,2′,2″-(10-(2-((3-(4-((5-(1-(3,5-difluorophenyl)-3-(3,3-dimethylmorpholine-4-carbonyl)-7-methoxy-1,4-dihydrochromeno[4,3-c]pyrazol-8-yl)pyridin-3-yl)amino)-4-oxobutanamido)-1-oxo-1-(4-(2-sulfoethyl)piperazin-1-yl)propan-2-yl)amino)-2-oxoethyl)-1,4,7,10-tetraazacyclododecane-1,4,7-triyl)triacetic acid--formic acid (1/1)]
